According to ChEMBL document CHEMBL5532664, “Discovery, Optimization, and Evaluation of Potent and Selective DNA-PK Inhibitors in Combination with Chemotherapy or Radiotherapy for the Treatment of Malignancies” (J Med Chem, 2024):
The source made the active and inactive calls. The rule behind the calls is not given here.

Columns and labels:
in vitro = details: human, liver microsomes
in vivo [1] = details: Sprague-Dawley, rat, plasma, po, 5 mg/kg
Description: Clearance in Sprague-Dawley rat plasma at 5 mg/kg, po measured upto 24 hrs by LC-MS/MS analysis

in vivo [2] = details: Sprague-Dawley, rat, po, 5 mg/kg
in vivo [3] = details: Sprague-Dawley, rat, po, 5 mg/kg; remark: listed apart in the source
in vivo [4] = details: Sprague-Dawley, rat, plasma, iv, 5 mg/kg
Description: (§1) Clearance in Sprague-Dawley rat plasma at 5 mg/kg, iv measured upto 24 hrs by LC-MS/MS analysis

HCT-116 [5] = test: Inhibition of colony formation in human HCT-116 cells preincubated with compound for 1 hr followed by exposure to 2 Gy gamma irradiation and measured after 7 days by crystal violet staining based chemiluminescence assay; assay type: functional, cell-based; details: HCT-116, light or radiation study
in vivo [6] = details: Sprague-Dawley, rat, iv, 5 mg/kg
in vivo [7] = details: Sprague-Dawley, rat, iv, 5 mg/kg; remark: listed apart in the source
in vivo [8] = details: Sprague-Dawley, rat, iv, 5 mg/kg; remark: listed apart in the source
HCT-116 [9] = test: Inhibition of colony formation in human HCT-116 cells at […] preincubated with compound for 1 hr followed by exposure to 2 Gy gamma irradiation and measured after 7 days by crystal violet staining based chemiluminescence assay relative to control; assay type: functional; details: HCT-116, light or radiation study, dose 0.25 µM, time 169 hrs
[10] = target: DNA-dependent protein kinase catalytic subunit (Homo sapiens, UniProt P78527)
Chain of DNA-dependent protein kinase catalytic subunit (P78527 whole entry): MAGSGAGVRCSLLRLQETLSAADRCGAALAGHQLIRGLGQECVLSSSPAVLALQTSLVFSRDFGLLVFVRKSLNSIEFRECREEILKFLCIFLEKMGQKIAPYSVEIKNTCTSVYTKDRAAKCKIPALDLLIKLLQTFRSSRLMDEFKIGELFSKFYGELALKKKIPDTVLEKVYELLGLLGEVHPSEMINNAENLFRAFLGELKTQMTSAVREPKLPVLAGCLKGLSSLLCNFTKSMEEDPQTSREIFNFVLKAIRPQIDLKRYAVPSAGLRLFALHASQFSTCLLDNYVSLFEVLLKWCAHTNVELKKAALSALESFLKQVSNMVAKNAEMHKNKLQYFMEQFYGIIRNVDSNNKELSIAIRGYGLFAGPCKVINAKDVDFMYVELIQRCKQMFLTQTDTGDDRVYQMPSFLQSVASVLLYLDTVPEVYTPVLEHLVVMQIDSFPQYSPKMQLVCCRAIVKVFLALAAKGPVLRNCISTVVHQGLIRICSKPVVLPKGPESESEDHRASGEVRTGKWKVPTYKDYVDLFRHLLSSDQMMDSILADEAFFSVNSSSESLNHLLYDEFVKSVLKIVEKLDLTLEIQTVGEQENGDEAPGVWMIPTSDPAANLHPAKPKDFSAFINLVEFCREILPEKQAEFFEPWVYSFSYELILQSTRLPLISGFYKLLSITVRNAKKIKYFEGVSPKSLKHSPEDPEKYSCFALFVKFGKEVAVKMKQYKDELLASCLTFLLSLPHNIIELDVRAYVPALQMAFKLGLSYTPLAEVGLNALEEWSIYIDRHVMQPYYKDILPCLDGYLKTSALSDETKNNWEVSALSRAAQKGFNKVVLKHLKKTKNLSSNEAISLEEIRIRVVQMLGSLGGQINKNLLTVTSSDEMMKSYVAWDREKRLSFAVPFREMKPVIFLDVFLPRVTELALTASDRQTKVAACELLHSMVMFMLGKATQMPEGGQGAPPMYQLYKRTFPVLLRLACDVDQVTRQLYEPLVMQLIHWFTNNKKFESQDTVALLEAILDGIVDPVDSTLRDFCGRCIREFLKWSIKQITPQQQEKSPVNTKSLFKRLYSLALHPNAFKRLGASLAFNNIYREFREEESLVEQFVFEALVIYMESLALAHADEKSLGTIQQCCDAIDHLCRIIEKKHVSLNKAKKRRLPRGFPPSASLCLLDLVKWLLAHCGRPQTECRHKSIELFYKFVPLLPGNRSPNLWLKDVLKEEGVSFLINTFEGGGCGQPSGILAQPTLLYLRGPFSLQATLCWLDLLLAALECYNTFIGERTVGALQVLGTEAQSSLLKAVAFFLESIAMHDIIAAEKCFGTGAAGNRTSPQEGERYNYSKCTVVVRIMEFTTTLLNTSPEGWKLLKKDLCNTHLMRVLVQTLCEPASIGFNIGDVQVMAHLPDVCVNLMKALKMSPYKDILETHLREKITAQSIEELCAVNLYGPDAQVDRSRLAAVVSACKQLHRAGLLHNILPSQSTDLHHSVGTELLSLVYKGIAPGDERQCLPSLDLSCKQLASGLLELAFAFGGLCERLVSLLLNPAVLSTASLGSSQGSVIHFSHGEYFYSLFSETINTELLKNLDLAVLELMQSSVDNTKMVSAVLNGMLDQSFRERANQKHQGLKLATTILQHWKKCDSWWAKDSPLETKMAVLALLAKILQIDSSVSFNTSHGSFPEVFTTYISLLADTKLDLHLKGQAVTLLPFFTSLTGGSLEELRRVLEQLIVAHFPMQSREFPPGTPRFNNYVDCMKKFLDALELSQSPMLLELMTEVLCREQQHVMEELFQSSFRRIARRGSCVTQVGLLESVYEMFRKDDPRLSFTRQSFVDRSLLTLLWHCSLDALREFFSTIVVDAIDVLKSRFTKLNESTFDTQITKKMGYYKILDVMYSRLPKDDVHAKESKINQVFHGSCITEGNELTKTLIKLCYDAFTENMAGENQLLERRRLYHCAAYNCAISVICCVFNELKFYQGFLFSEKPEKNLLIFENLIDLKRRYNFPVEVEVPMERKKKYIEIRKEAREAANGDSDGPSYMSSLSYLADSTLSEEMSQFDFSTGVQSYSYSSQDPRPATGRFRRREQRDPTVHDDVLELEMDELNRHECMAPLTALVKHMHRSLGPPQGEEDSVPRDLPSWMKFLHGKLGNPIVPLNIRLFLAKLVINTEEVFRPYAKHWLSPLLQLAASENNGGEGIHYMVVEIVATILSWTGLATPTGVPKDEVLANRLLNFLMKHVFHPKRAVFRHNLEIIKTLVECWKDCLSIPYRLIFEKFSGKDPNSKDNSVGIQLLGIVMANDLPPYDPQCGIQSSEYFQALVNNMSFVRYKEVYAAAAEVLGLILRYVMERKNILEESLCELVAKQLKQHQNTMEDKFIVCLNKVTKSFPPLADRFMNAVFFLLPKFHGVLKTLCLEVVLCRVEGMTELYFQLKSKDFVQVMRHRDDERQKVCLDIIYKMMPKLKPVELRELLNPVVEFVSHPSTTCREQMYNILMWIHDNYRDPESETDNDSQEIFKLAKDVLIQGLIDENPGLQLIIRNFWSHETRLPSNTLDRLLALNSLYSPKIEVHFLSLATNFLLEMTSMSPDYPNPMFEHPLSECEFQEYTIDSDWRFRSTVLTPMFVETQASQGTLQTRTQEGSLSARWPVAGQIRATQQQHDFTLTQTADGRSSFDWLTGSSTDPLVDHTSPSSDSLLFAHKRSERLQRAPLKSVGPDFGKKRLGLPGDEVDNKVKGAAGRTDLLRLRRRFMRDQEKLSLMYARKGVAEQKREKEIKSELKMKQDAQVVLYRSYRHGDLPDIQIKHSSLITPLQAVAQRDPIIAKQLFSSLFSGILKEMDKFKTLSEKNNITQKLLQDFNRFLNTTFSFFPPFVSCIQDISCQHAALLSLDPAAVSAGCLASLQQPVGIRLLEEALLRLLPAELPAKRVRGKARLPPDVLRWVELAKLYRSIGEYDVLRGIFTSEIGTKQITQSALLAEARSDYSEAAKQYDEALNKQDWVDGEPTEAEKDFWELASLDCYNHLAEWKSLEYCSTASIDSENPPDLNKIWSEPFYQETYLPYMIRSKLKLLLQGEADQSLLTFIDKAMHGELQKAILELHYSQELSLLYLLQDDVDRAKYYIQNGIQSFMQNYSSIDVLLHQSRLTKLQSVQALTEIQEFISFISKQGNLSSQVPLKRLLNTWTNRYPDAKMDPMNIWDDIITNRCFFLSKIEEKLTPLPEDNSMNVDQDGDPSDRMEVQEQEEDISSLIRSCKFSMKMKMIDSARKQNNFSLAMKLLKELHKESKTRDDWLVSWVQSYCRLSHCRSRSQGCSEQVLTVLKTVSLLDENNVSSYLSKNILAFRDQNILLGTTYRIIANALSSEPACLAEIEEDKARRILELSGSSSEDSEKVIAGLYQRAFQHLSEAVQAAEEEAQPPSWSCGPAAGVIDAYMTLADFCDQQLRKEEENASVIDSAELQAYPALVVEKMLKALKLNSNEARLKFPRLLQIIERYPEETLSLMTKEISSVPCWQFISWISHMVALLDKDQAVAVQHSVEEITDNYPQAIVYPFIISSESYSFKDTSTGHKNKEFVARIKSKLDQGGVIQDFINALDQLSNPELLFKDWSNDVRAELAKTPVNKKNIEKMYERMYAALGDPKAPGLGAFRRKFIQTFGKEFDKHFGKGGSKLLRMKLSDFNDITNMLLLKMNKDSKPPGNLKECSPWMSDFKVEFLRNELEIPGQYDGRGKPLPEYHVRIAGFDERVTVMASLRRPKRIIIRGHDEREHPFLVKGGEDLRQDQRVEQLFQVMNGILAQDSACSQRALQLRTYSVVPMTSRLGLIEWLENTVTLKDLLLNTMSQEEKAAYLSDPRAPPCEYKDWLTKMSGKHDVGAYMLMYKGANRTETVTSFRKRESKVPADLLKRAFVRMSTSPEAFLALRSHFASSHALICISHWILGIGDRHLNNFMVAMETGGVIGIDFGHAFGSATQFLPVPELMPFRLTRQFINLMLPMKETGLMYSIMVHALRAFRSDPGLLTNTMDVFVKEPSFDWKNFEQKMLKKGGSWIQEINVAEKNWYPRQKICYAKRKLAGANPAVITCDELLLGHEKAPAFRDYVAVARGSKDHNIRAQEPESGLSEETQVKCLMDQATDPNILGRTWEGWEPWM
Description: Inhibition of human DNA-PK incubated for 30 mins in presence of Mg/ATP by HTRF method

in vivo [11] = details: Sprague-Dawley, rat, po, 5 mg/kg; remark: listed apart in the source
hERG (KCNH2) = hERG (KCNH2) (Homo sapiens, UniProt Q12809); test: in vitro
Description: Inhibition of human ERG at 20 uM relative to control

in vivo [12] = details: Sprague-Dawley, rat, po, 5 mg/kg; remark: listed apart in the source
NCI-H460 = test: Antitumor activity against human NCI-H460 cells xenografted in BALB/ c nude mouse assessed as inhibition of tumor growth at 100 mg/kg, po administered once daily with 2 Gy irradiation and measured upto 7 days by vernier caliper analysis; assay type: functional, organism-based; details: time <= 7.0 day
A549 = test: Antitumor activity against human A549 cells xenografted in BALB/c nude mouse assessed as inhibition of tumor growth at 10 mg/kg, iv administered thrice measured upto 26 days by vernier caliper analysis; assay type: functional, organism-based; details: time <= 26.0 day
[13] = rat, in vivo, iv, 5 mg/kg, 24 h
Description: as §1

Row | SMILES | half-life at 5 min, 1 µM (in vitro) [h] | CL/F at 24 h (in vivo [1]) [mL/min/kg] | AUC(0-t) at 24 h (in vivo [2]) [ng·h/mL] | Cmax at 24 h (in vivo [3]) [ng/mL] | clearance at 24 h (in vivo [4]) [mL/min/kg] | IC50 (HCT-116 [5]) [nM] | AUC(0-t) at 24 h (in vivo [6]) [ng·h/mL] | half-life at 24 h (in vivo [7]) [h] | Cmax at 24 h (in vivo [8]) [ng/mL] | inhibition at […] (HCT-116 [9]) [%] | IC50 [10] [nM] | bioavailability at 24 h (in vivo [11]) [%] | inhibition at 20 µM (hERG (KCNH2)) [%] | half-life at 24 h (in vivo [12]) [h] | Activity (NCI-H460) | Activity (A549) | CL [13] [mL/min/kg]
1 | Cc1cc(-c2nc[nH]n2)ccc1Nc1ncc2c(n1)n(C1CCOCC1)c(=O)n2C | 10.5 | 62 | 1350 | 733 | 20.2 | 83.3 | 4060 | 11.8 | 4290 | 96.9 | 0.4 | 33.2 | -0.02 | 3.72 | – | – | –
2 | Cc1cc(-c2cccs2)ncc1Nc1ncc2c(n1)n(C1CCOCC1)c(=O)n2C | 1.96 | 204 | 277 | 23.8 | 306 | 15.2 | 278 | 3.45 | 23.3 | 97.9 | 0.1 | 99.6 | – | 7.34 | Active | – | –
3 | Cc1cnc(-c2cnn(C)c2)cc1Nc1ncc2c(n1)n(C1CCOCC1)c(=O)n2C | 4.81 | 16 | 6470 | 406 | 11.7 | 27.5 | 7300 | 7.08 | 1320 | 99.4 | – | 88.5 | – | 11.6 | Active | – | –
4 | CC(=O)O[C@H]1C(=O)[C@@]2(C)[C@H]([C@H](OC(=O)c3ccccc3)[C@]3(O)C[C@H](OC(=O)[C@H](O)[C@@H](NC(=O)c4ccccc4)c4ccccc4)C(C)=C1C3(C)C)[C@]1(OC(C)=O)CO[C@@H]1C[C@@H]2O | – | – | – | – | – | – | – | – | – | – | – | – | – | – | – | inactive | –
5 | Cc1cc(-c2ccc(C=O)o2)ncc1Nc1ncc2c(n1)n(C1CCOCC1)c(=O)n2C | 0.327 | 6790 | 7.83 | 2.24 | – | – | 29.9 | 9.79 | 25.2 | 98.5 | 0.2 | 36.2 | 4.42 | 34.4 | – | – | 2420.2
6 | Cc1cc(-c2ccsc2)ncc1Nc1ncc2c(n1)n(C1CCOCC1)c(=O)n2C | 2.51 | – | – | – | – | 3.76 | – | – | – | 99.8 | 0.8 | – | – | – | Active | – | –
7 | COc1ccc(-c2cc(C)c(Nc3ncc4c(n3)n(C3CCOCC3)c(=O)n4C)cn2)cc1OC | 2.31 | 22.3 | 3450 | 341 | 11 | 48 | 7400 | 4.73 | 869 | 99.9 | 1 | 46.6 | 8.61 | 6.73 | Active | – | –
8 | Cc1cc(-c2cnn(C(F)F)c2)ncc1Nc1ncc2c(n1)n(C1CCOCC1)c(=O)n2C | 2.78 | 17.7 | 4440 | 760 | 16.3 | 68 | 5290 | 1.76 | 1890 | 96.9 | 0.4 | 84 | 22.7 | 5.82 | Active | – | –
9 | COc1ccc2c(c1)CCN2c1ncc2c(n1)n(C1CCOCC1)c(=O)n2C | 0.138 | – | – | – | – | – | – | – | – | 86.1 | 6 | – | – | – | – | – | –
10 | COc1ccc(-c2cc(C)c(Nc3ncc4c(n3)n(C3CCOCC3)c(=O)n4C)cn2)cn1 | 19.2 | 10.7 | 7860 | 1960 | 6.33 | 79.3 | 13200 | 3.34 | 1960 | 96.7 | 3 | 59.6 | 16.8 | 4.37 | – | – | –
11 | Cn1cc(-c2ccc3c(c2)CCN3c2ncc3c(n2)n(C2CCOCC2)c(=O)n3C)cn1 | 2.51 | – | – | – | – | – | – | – | – | 97.6 | 8 | – | – | – | – | – | –
